One data set has as its system HIV-1 strain HTLVIIIB
Put plainly: p24 enzyme immunoassay of HIV replication in HTLVIIIB-infected peripheral blood mononuclear cells. The data set is classed as cell-based. The procedure:
The HIV-1 strain HTLVIIIB (kindly provided by Dr. Neal T. Wetherall, VIROMED Laboratories, Inc.), was propagated in CCRF-CEM cells, and used in in vitro assays of the anti-HIV-1 activity of the synthesized novel derivatives. Cell-free supernatants of HTLVIIIB-infected CCRF-CEM cells were harvested, dispensed into 1 ml aliquots, and frozen at −70° C.
The incubated cells were then exposed to HIV-1 at a multiplicity of infection (MOI) of 0.1 during a one-hour adsorption period at 37° C. in a humidified 5% CO2 atmosphere. […] Aliquots of culture supernatants were removed from the wells on the 7th day after infection for p24 antigen assays. […] Ag.
The applied p24 enzyme immunoassay (EIA) was the unmodified kinetic assay commercially available from Coulter Corporation/Immunotech, Inc. (Westbrooke, Me.). In the assay, a murine monoclonal antibody against HIV core protein is coated onto microwell strips. Antigen (HIV core protein) present in the test culture supernatant samples binds the antibody and the bound antibody-antigen complex is quantitated. Percent viral inhibition was calculated by comparing the p24 values from the test substance-treated infected cells with p24 values from untreated infected cells (i.e., virus controls).

Data set [1] addresses recombinant HIV-1 reverse transcriptase (rRT) (Human immunodeficiency virus type 1 group M subtype B, UniProt P04585). The data set is described as follows: Quan-T-RT cell-free assay of recombinant HIV-1 reverse transcriptase activity. The data set is classed as biochemical. The procedure:
In addition, the activity of the test compounds to inhibit recombinant HIV-1 reverse transcriptase (rRT) activity was determined using the Quan-T-RT assay system (Amersham, Arlington Heights, Ill.), which utilizes the scintillation proximity assay principle. […] Data for both bioassays is reported as IC50 values.

In the next data set the test system is non-infected PBMNC. The data set is described as follows: Microculture Tetrazolium Assay (MTA) of cell viability. The data set is classed as cell-based, human. The note with it: for IC50: Table 7, concentration decreasing cellular proliferation by 50%. The procedure: (§1) Ag. […] In brief, non-infected PBMNC were treated with test compounds or controls for 7 days under identical experimental conditions and 2,3-bis(2-methoxy-4-nitro-5-sulfophenyl)-5-[(phenylamino)-carbonyl]-2H-tetrazolium hydroxide ([…]), was added to quantitative cellular proliferation.

Assay in data set [2]: as above
The note with it: human; for CC50 at 7 days: non-infected PBMNC, Table 4. The data set is classed as cell-based, human. The procedure: as §1

Setting [3] is: Human immunodeficiency virus 1, PBMC, HIV-infected human peripheral blood mononuclear cells, read-out: IC50 for inhibition of HIV replication (p24 production).
[4] abbreviates: Human immunodeficiency virus 1, PBMC, Table 6, read-out: IC50 p24.
Where [5] appears, read: Table 7, HIV-infected peripheral blood mononuclear cells, read-out: IC50 [p24].
Setting [6] is: Human immunodeficiency virus 1, PBMC, read-out: IC50 [p24].
Where [7] appears, read: Table 4, DABO compounds, purified recombinant HIV RT, read-out: IC50 [rRT].
Setting [8] is: Table 6, recombinant HIV reverse transcriptase assay, read-out: IC50 rRT.
The mark [9] stands for this setting: Table 5, HIV-infected PBMNC, read-out: IC50 p24.

Molecules are shown by their SMILES. Where two headings read alike, the source gives them in different places. Some results are limits rather than exact numbers.

The values that follow come from patent US6925388B1, “Heterocyclic nonnucleoside inhibitors of reverse transcriptase” (Parker Hughes Institute, priority 1998, dated 2005).

As to `S=C(NCCc1ccccc1Cl)Nc1ccc(Br)cn1` [II-3, N-[2-(2-chlorophenethyl)]-N′-[2-(5-bromopyridyl)]-thiourea], the melting point (as a rule, the temperature of the solid-liquid transition) is 137 to 139 °C. The 50% inhibitory concentration (IC50) – broadly, the concentration needed to halve the response being measured – with HIV-1 strain HTLVIIIB (setting [3]) was < 0.001 µM. Further, the IC50 with HIV-1 strain HTLVIIIB (setting [4]) was < 0.001 µM. Besides, the half-inhibitory concentration (IC50) in data set [1] was determined as 0.7 µM.
Regarding `S=C(NCCN1CCNCC1)Nc1ccc(Br)cn1` [III-2, N-[2-(1-piperizinylethyl)]-N′-[2-(5-bromopyridyl)]-thiourea], the IC50 with HIV-1 strain HTLVIIIB (setting [5]) is 0.002 µM; with non-infected PBMNC, > 100 µM.
On to `CSCSc1nc(Cc2ccccc2)c(C)c(=O)[nH]1` [Compound 3a, 5-methyl-2-[(methylthiomethyl)thio]-6-benzyl-pyrimidin-4-1H-one], for which the IC50 with HIV-1 strain HTLVIIIB (setting [6]) came out at 4.5 µM; in data set [1] (setting [7]), 18.8 µM. For the same molecule, in data set [2], the cytotoxic concentration (CC50) (as a rule, the concentration at which the toxic effect on the cells reaches its halfway point) at 7 days is > 100 µM.
In the case of `S=C(NCCc1ccccn1)Nc1ccc(Br)cn1` [Trovirdine, reference compound], the half-inhibitory concentration (IC50) in the data set on HIV-1 strain HTLVIIIB (setting [6]) stood at 0.007 µM; in the data set on HIV-1 strain HTLVIIIB (Human immunodeficiency virus 1, PBMC, read-out: IC50 anti-HIV activity (p24)) it was 0.007 µM; in the data set on HIV-1 strain HTLVIIIB (Human immunodeficiency virus 1, PBMC, read-out: IC50 p24), 0.007 µM. For the same molecule, in data set [2] (Table 7, concentration decreasing cellular proliferation by 50%), the concentration for half-maximal inhibition (IC50) at 7 days is > 100 µM.
As to `S=C(NCCN1CCCCC1)Nc1ccc(Br)cn1` [III-1, N-[2-(1-piperidinylethyl)]-N′-[2-(5-bromopyridyl)]-thiourea], the half-inhibitory concentration (IC50) in the data set on HIV-1 strain HTLVIIIB (setting [5]) was < 0.001 µM; in the data set with non-infected PBMNC, > 100 µM.
On to `CCOCn1c(Cc2ccccc2)c(C(C)C)c(=O)[nH]c1=O` [MKC-442, reference compound], for which, in data set [2], the CC50 at 7 days was > 100 µM.
Consider `COc1cccc(CCNC(=S)Nc2ccc(Br)cn2)c1` [II-4, N-[2-(3-metboxyphenethyl)]-N′-[2-(5-bromopyridyl)]-thiourea], for which the melting point was in the range of 155 to 156 °C. For the same molecule, in the data set on HIV-1 strain HTLVIIIB, the “selectivity index (IC50[MTA]/IC50[p24])” value is given as > 3×10^4. In addition, the IC50 in the data set on HIV-1 strain HTLVIIIB (setting [3]) was found to be 0.003 µM. For the same molecule, the IC50 in the data set with HIV-1 strain HTLVIIIB (setting [4]) was 0.003 µM. In data set [1], the half-maximal inhibitory concentration (IC50) amounted to 0.4 µM and the “times more potent than trovirdine against recombinant HIV RT” value was “approximately 2”.
In the case of `S=C(NCCN1CCOCC1)Nc1ccc(Br)cn1` [III-3, N-[2-(1-morpholinylethyl)]-N′-[2-(5-bromopyridyl)]-thiourea], the IC50 in the data set on HIV-1 strain HTLVIIIB (setting [5]) is < 0.001 µM; in the data set with non-infected PBMNC, > 100 µM.
For the molecule `Fc1ccc(CCNC(=S)Nc2ccc(Br)cn2)cc1` [II-8, N-[2-(4-fluorophenethyl)]-N′-[2-(5-bromopyridyl)]-thiourea], the melting point was 177 to 178 °C. Also, in data set [1], the “fold less active than meta and ortho F compounds (IC50[rRT])” value turned out to be 10 fold. In addition, the half-inhibitory concentration (IC50) in data set [1] (setting [8]) was found to be 6.4 µM.
With `S=C(NCCc1ccc(Cl)cc1)Nc1ccc(Br)cn1` [II-9, N-[2-(4-chlorophenethyl)]-N′-[2-(5-bromopyridyl)]-thiourea], the melting point fell in the range of 180 to 183 °C.
On to `CSCSc1nc(Cc2cc(C)cc(C)c2)c(C(C)C)c(=O)[nH]1` [Compound 3d, 5-isopropyl-2-[(methylthiomethyl)thio]-6-(3,5-dimethylbenzyl)-pyrimidin-4-1H-one], for which the IC50 in data set [1] (setting [7]) was 4.8 µM.
Turning to `Fc1cccc(CCNC(=S)Nc2ccc(Br)cn2)c1` [II-5, N-[2-(3-fluorophenethyl)]-N′-[2-(5-bromopyridyl)]-thiourea], the melting point fell in the range of 171 to 172 °C. For the same molecule, the IC50 in the data set with HIV-1 strain HTLVIIIB (setting [3]) is < 0.001 µM. In the data set with HIV-1 strain HTLVIIIB (setting [4]), the half-maximal inhibitory concentration (IC50) was < 0.001 µM. Also, in data set [1], the IC50 amounted to 0.7 µM.
Take `Cc1cn([C@H]2C[C@H](N=[N+]=[N-])[C@@H](CO)O2)c(=O)[nH]c1=O` [AZT, reference compound]: the IC50 in the data set on HIV-1 strain HTLVIIIB (3 of 3 independent experiments for I-4, read-out: IC50 anti-HIV activity (p24)) was 0.008 µM; with HIV-1 strain HTLVIIIB (Table 4, HTLVIIIB-infected peripheral blood mononuclear cells, read-out: IC50 [p24]) it was 0.04 µM; in the data set with HIV-1 strain HTLVIIIB (Table 6, read-out: IC50 p24), 0.004 µM; in the data set with HIV-1 strain HTLVIIIB (setting [5]), 0.004 µM; in the data set with non-infected PBMNC it was 50 µM; in data set [1] (setting [7]), > 100 µM. For the same molecule, the 50% inhibitory concentration (IC50) in data set [1] (setting [8]) was > 100 µM. The molecule also yielded a CC50 with non-infected PBMNC (Table 4) of 50 µM.
In turn, `COc1ccc(CCNC(=S)Nc2ccc(Br)cn2)cc1` [II-7, N-[2-(4-methoxyphenethyl)]-N′-[2-(5-bromopyridyl)]-thiourea] gave a melting point of 178 to 179 °C. Moreover, the IC50 in the data set with HIV-1 strain HTLVIIIB (setting [3]) amounted to 0.015 µM. For the same molecule, the IC50 in the data set on HIV-1 strain HTLVIIIB (setting [4]) turned out to be 0.015 µM.
Turning to `S=C(NCCN1CCCCC1)Nc1ccc(Br)cn1` [Compound I-3, N-[2-(1-piperidinoethyl)]-N′-[2-(5-bromopyridyl)]-thiourea], the IC50 in the data set on HIV-1 strain HTLVIIIB (setting [9]) was < 0.001 µM.
For the molecule `S=C(NCCc1cccc(Cl)c1)Nc1ccc(Br)cn1` [II-6, N-[2-(3-chlorophenethyl)]-N′-[2-(5-bromopyridyl)]-thiourea], the melting point was in the range of 163 to 165 °C. For the same molecule, in data set [1] (setting [8]), the IC50 is 3.1 µM.
`S=C(NCCc1ccccn1)Nc1ccccn1` [Compound I-1, N-[2-(2-pyridylethyl)]-N′-[2-(pyridyl)]-thiourea]: in the data set with HIV-1 strain HTLVIIIB (setting [9]), the IC50 stood at 0.23 µM.
The molecule `Fc1ccccc1CCNC(=S)Nc1ccc(Br)cn1` [II-2, N-[2-(2-fluorophenethyl)]-N′-[2-(5-bromopyridyl)]-thiourea] yielded a melting point of 156 to 157 °C. Further, in the data set with HIV-1 strain HTLVIIIB (setting [3]), the concentration for half-maximal inhibition (IC50) was < 0.001 µM. Besides, the IC50 in the data set with HIV-1 strain HTLVIIIB (setting [4]) was < 0.001 µM. Besides, the IC50 in data set [1] was found to be 0.6 µM.
Consider `COc1ccc(OC)c(CCNC(=S)Nc2ccc(Br)cn2)c1` [Compound I-4, N-[2-(2,5-dimethoxyphenylethyl)]-N′-[2-(5-bromopyridyl)]-thiourea], for which the melting point was 133 to 138 °C. Besides, the 50% inhibitory concentration (IC50) with HIV-1 strain HTLVIIIB (Human immunodeficiency virus 1, PBMC, 3 of 3 independent experiments for I-4, read-out: IC50 anti-HIV activity (p24)) was < 0.001 µM. Also, the IC50 in the data set with HIV-1 strain HTLVIIIB (Human immunodeficiency virus 1, PBMC, Table 5, HIV-infected PBMNC, read-out: IC50 p24) is < 0.001 µM. Further, the “times more potent than trovirdine against recombinant HIV RT” value in data set [1] was determined as 8.
As to `CCc1c(Cc2ccccc2)nc(SCSC)[nH]c1=O` [Compound 3b, 5-ethyl-2-[(methylthiomethyl)thio]-6-benzyl-pyrimidin-4-1H-one], the concentration for half-maximal inhibition (IC50) came to 0.8 µM in the data set on HIV-1 strain HTLVIIIB (setting [6]) and 9.7 µM in data set [1] (setting [7]). In addition, the CC50 at 7 days in data set [2] was > 100 µM.
For the molecule `CSCSc1nc(Cc2ccccc2)c(C(C)C)c(=O)[nH]1` [Compound 3c, 5-isopropyl-2-[(methylthiomethyl)thio]-benzyl-pyrimidin-4-1H-one], the “selectivity index (IC50[MTA]/IC50[p24])” value in the data set with HIV-1 strain HTLVIIIB is > 100,000. For the same molecule, in the data set on HIV-1 strain HTLVIIIB (HIV replication), the “fold more active than AZT and MKC-442” value is “more than 4 fold”. The IC50 with HIV-1 strain HTLVIIIB (setting [6]) was < 0.001 µM; in the data set with HIV-1 strain HTLVIIIB (Human immunodeficiency virus 1, PBMC, read-out: IC50 for inhibition of HIV replication (p24 production)), < 0.001 µM. Also, the “inhibition of cellular proliferation as measured by MTA” value with non-infected PBMNC (no detectable cytotoxicity) was > 100 µM. Besides, in data set [2], the CC50 at 7 days is > 100 µM.
Molecule `COc1ccccc1CCNC(=S)Nc1ccc(Br)cn1` [II-1, N-[2-(2-methoxyphenethyl)]-N′-[2-(5-bromopyridyl)]-thiourea] gave a melting point of 143 to 145 °C. Moreover, the 50% inhibitory concentration (IC50) in the data set on HIV-1 strain HTLVIIIB (setting [4]) is 0.01 µM. Further, in data set [1], the IC50 came to 1 µM.
